Target: T1, human PAH with the R408W mutation (A375 R408W cells) (Homo sapiens, UniProt P00439, R408W)
T1 construct: expressed in transfected cells
T1 sequence (P00439 1-452 R408W): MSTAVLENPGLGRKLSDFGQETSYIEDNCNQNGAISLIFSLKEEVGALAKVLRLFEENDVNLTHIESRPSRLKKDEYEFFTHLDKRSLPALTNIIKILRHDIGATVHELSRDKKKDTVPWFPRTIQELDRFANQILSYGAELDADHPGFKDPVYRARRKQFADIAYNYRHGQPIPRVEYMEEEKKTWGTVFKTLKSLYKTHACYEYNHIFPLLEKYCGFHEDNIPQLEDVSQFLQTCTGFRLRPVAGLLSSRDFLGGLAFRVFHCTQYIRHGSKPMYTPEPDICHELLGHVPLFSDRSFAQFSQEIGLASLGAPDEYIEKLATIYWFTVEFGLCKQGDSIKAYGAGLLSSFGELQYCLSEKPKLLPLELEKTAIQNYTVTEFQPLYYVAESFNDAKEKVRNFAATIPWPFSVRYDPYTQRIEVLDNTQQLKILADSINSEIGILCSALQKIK
Assay: Cell Based Phenylalanine Flux Assay
Details: A375 R408W cells; 24 hrs with compound, then 20 μM sepiapterin and 800 μM 13C9,15N-Phenylalanine for 4 hours; 13C-Tyrosine by LC-MS; average where tested multiple times
In short: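 AC50 is derived from LC-MS of 13C-tyrosine in the media after a 4 h pulse of 800 μM 13C9,15N-phenylalanine plus 20 μM sepiapterin. The A375 R408W PAH cells had received duplicate 10-point, 2-fold compound dilutions (0.5% DMSO) for 24 h beforehand.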

| SMILES | AC50 [nM] |
| --- | --- |
| Cn1cc(C(=O)N2CCc3[nH]cnc3[C@H]2c2nc3cc(F)ccc3o2)c(C(F)F)n1 [Example 95, (S)-(3-(difluoromethyl)-1-methyl-1H-pyrazol-4-yl)(4-(5-fluorobenzo[d]oxazol-2-yl)-6,7-dihydro-1H-imidazo[4,5-c]pyridin-5(4H)-yl)methanone] | 500 to 1000 |
| Cn1cc(C(=O)N2CCc3[nH]cnc3[C@@H]2c2nc3cc(F)ccc3o2)c(C(F)F)n1 [Example 96, (R)-(3-(difluoromethyl)-1-methyl-1H-pyrazol-4-yl)(4-(5-fluorobenzo[d]oxazol-2-yl)-6,7-dihydro-1H-imidazo[4,5-c]pyridin-5(4H)-yl)methanone] | 1000 to 5000 |
| Cc1ccc2oc([C@@H]3c4nc[nH]c4CCN3C(=O)c3nnc(-c4ccccn4)o3)nc2c1 [Example 97, (S)-(4-(5-methylbenzo[d]oxazol-2-yl)-6,7-dihydro-1H-imidazo[4,5-c]pyridin-5(4H)-yl)(5-(pyridin-2-yl)-1,3,4-oxadiazol-2-yl)methanone] | ≤ 500 |
| Cc1ccc2oc([C@H]3c4nc[nH]c4CCN3C(=O)c3nnc(-c4ccccn4)o3)nc2c1 [Example 98, (R)-(4-(5-methylbenzo[d]oxazol-2-yl)-6,7-dihydro-1H-imidazo[4,5-c]pyridin-5(4H)-yl)(5-(pyridin-2-yl)-1,3,4-oxadiazol-2-yl)methanone] | 1000 to 5000 |
| Cc1ccc2oc([C@@H]3c4nc[nH]c4CCN3C(=O)c3nnc(-c4ccc(F)cn4)o3)nc2c1 [Example 99, (S)-(5-(5-fluoropyridin-2-yl)-1,3,4-oxadiazol-2-yl)(4-(5-methylbenzo[d]oxazol-2-yl)-6,7-dihydro-1H-imidazo[4,5-c]pyridin-5(4H)-yl)methanone] | 500 to 1000 |
| Cc1ccc2oc([C@H]3c4nc[nH]c4CCN3C(=O)c3nnc(-c4ccc(F)cn4)o3)nc2c1 [Example 100, (R)-(5-(5-fluoropyridin-2-yl)-1,3,4-oxadiazol-2-yl)(4-(5-methylbenzo[d]oxazol-2-yl)-6,7-dihydro-1H-imidazo[4,5-c]pyridin-5(4H)-yl)methanone] | 1000 to 5000 |
| Cc1ccc2nc([C@@H]3c4nc[nH]c4CCN3C(=O)c3nnc(-c4ccccn4)o3)oc2c1 [Example 101, (S)-(4-(6-methylbenzo[d]oxazol-2-yl)-6,7-dihydro-1H-imidazo[4,5-c]pyridin-5(4H)-yl)(5-(pyridin-2-yl)-1,3,4-oxadiazol-2-yl)methanone] | 500 to 1000 |
| Cc1ccc2nc([C@H]3c4nc[nH]c4CCN3C(=O)c3nnc(-c4ccccn4)o3)oc2c1 [Example 102, (R)-(4-(6-methylbenzo[d]oxazol-2-yl)-6,7-dihydro-1H-imidazo[4,5-c]pyridin-5(4H)-yl)(5-(pyridin-2-yl)-1,3,4-oxadiazol-2-yl)methanone] | 1000 to 5000 |
| Cc1ccc2nc([C@@H]3c4nc[nH]c4CCN3C(=O)c3nnc(-c4cnn(C)c4)o3)oc2c1 [Example 103, (S)-(5-(1-methyl-1H-pyrazol-4-yl)-1,3,4-oxadiazol-2-yl)(4-(6-methylbenzo[d]oxazol-2-yl)-6,7-dihydro-1H-imidazo[4,5-c]pyridin-5(4H)-yl)methanone] | 1000 to 5000 |
| Cc1ccc2nc([C@H]3c4nc[nH]c4CCN3C(=O)c3nnc(-c4cnn(C)c4)o3)oc2c1 [Example 104, (R)-(5-(1-methyl-1H-pyrazol-4-yl)-1,3,4-oxadiazol-2-yl)(4-(6-methylbenzo[d]oxazol-2-yl)-6,7-dihydro-1H-imidazo[4,5-c]pyridin-5(4H)-yl)methanone] | ≥ 5000 |
| Cn1ccc(-c2nnc(C(=O)N3CCc4[nH]cnc4[C@@H]3c3nc4cc(F)ccc4o3)o2)n1 [Example 105, (R)-(4-(5-fluorobenzo[d]oxazol-2-yl)-6,7-dihydro-1H-imidazo[4,5-c]pyridin-5(4H)-yl)(5-(1-methyl-1H-pyrazol-3-yl)-1,3,4-oxadiazol-2-yl)methanone] | 1000 to 5000 |
| Cn1ccc(-c2nnc(C(=O)N3CCc4[nH]cnc4[C@H]3c3nc4cc(F)ccc4o3)o2)n1 [Example 106, (S)-(4-(5-fluorobenzo[d]oxazol-2-yl)-6,7-dihydro-1H-imidazo[4,5-c]pyridin-5(4H)-yl)(5-(1-methyl-1H-pyrazol-3-yl)-1,3,4-oxadiazol-2-yl)methanone] | 1000 to 5000 |

Results, then the compound that gave them:

| AC50 [nM] | SMILES |
| --- | --- |
| 1000 to 5000 | COCc1nc(C(F)F)c(C(=O)N2CCc3[nH]cnc3[C@@H]2c2nc3cc(F)ccc3o2)o1 [Example 109, (R)-(4-(difluoromethyl)-2-(methoxymethyl)oxazol-5-yl)(4-(5-fluorobenzo[d]oxazol-2-yl)-6,7-dihydro-1H-imidazo[4,5-c]pyridin-5(4H)-yl)methanone] |
| 500 to 1000 | COCc1nc(C(F)F)c(C(=O)N2CCc3[nH]cnc3[C@H]2c2nc3cc(F)ccc3o2)o1 [Example 110, (S)-(4-(difluoromethyl)-2-(methoxymethyl)oxazol-5-yl)(4-(5-fluorobenzo[d]oxazol-2-yl)-6,7-dihydro-1H-imidazo[4,5-c]pyridin-5(4H)-yl)methanone] |
| 500 to 1000 | Cc1ccc2oc([C@@H]3c4nc[nH]c4CCN3C(=O)c3nnc(-c4cnn(C)c4)o3)nc2c1 [Example 111, (S)-(5-(1-methyl-1H-pyrazol-4-yl)-1,3,4-oxadiazol-2-yl)(4-(5-methylbenzo[d]oxazol-2-yl)-6,7-dihydro-1H-imidazo[4,5-c]pyridin-5(4H)-yl)methanone] |
| 1000 to 5000 | Cc1ccc2oc([C@H]3c4nc[nH]c4CCN3C(=O)c3nnc(-c4cnn(C)c4)o3)nc2c1 [Example 112, (R)-(5-(1-methyl-1H-pyrazol-4-yl)-1,3,4-oxadiazol-2-yl)(4-(5-methylbenzo[d]oxazol-2-yl)-6,7-dihydro-1H-imidazo[4,5-c]pyridin-5(4H)-yl)methanone] |
| 1000 to 5000 | O=C(c1nnc(-c2ccn(C(F)F)n2)o1)N1CCc2[nH]cnc2[C@H]1c1nc2cc(F)ccc2o1 [Example 113, (S)-(5-(1-(difluoromethyl)-1H-pyrazol-3-yl)-1,3,4-oxadiazol-2-yl)(4-(5-fluorobenzo[d]oxazol-2-yl)-6,7-dihydro-1H-imidazo[4,5-c]pyridin-5(4H)-yl)methanone] |
| 1000 to 5000 | O=C(c1nnc(-c2ccn(C(F)F)n2)o1)N1CCc2[nH]cnc2[C@@H]1c1nc2cc(F)ccc2o1 [Example 114, (R)-(5-(1-(difluoromethyl)-1H-pyrazol-3-yl)-1,3,4-oxadiazol-2-yl)(4-(5-fluorobenzo[d]oxazol-2-yl)-6,7-dihydro-1H-imidazo[4,5-c]pyridin-5(4H)-yl)methanone] |
| 500 to 1000 | O=C(c1oc(COC(F)(F)F)nc1C(F)F)N1CCc2[nH]cnc2[C@H]1c1nc2cc(F)ccc2o1 [Example 115, (S)-(4-(difluoromethyl)-2-((trifluoromethoxy)methyl)oxazol-5-yl)(4-(5-fluorobenzo[d]oxazol-2-yl)-6,7-dihydro-1H-imidazo[4,5-c]pyridin-5(4H)-yl)methanone] |
| 1000 to 5000 | O=C(c1oc(COC(F)(F)F)nc1C(F)F)N1CCc2[nH]cnc2[C@@H]1c1nc2cc(F)ccc2o1 [Example 116, (R)-(4-(difluoromethyl)-2-((trifluoromethoxy)methyl)oxazol-5-yl)(4-(5-fluorobenzo[d]oxazol-2-yl)-6,7-dihydro-1H-imidazo[4,5-c]pyridin-5(4H)-yl)methanone] |
| 1000 to 5000 | Cn1cc(-c2nnc(C(=O)N3CCc4[nH]cnc4[C@@H]3c3nc4cc(F)ccc4o3)o2)c(C(F)(F)F)n1 [Example 117, (R)-(4-(5-fluorobenzo[d]oxazol-2-yl)-6,7-dihydro-1H-imidazo[4,5-c]pyridin-5(4H)-yl)(5-(1-methyl-3-(trifluoromethyl)-1H-pyrazol-4-yl)-1,3,4-oxadiazol-2-yl)methanone] |
| ≤ 500 | Cn1cc(-c2nnc(C(=O)N3CCc4[nH]cnc4[C@H]3c3nc4cc(F)ccc4o3)o2)c(C(F)(F)F)n1 [Example 118, (S)-(4-(5-fluorobenzo[d]oxazol-2-yl)-6,7-dihydro-1H-imidazo[4,5-c]pyridin-5(4H)-yl)(5-(1-methyl-3-(trifluoromethyl)-1H-pyrazol-4-yl)-1,3,4-oxadiazol-2-yl)methanone] |
| 500 to 1000 | Cc1cnn(C)c1-c1nnc(C(=O)N2CCc3[nH]cnc3[C@H]2c2nc3cc(F)ccc3o2)o1 [Example 119, (S)-(5-(1,4-dimethyl-1H-pyrazol-5-yl)-1,3,4-oxadiazol-2-yl)(4-(5-fluorobenzo[d]oxazol-2-yl)-6,7-dihydro-1H-imidazo[4,5-c]pyridin-5(4H)-yl)methanone] |
| 1000 to 5000 | Cc1cnn(C)c1-c1nnc(C(=O)N2CCc3[nH]cnc3[C@@H]2c2nc3cc(F)ccc3o2)o1 [Example 120, (R)-(5-(1,4-dimethyl-1H-pyrazol-5-yl)-1,3,4-oxadiazol-2-yl)(4-(5-fluorobenzo[d]oxazol-2-yl)-6,7-dihydro-1H-imidazo[4,5-c]pyridin-5(4H)-yl)methanone] |
| 1000 to 5000 | O=C(c1nnc(-c2cc(C(F)(F)F)ccn2)o1)N1CCc2[nH]cnc2[C@@H]1c1nc2cc(F)ccc2o1 [Example 121, [(4R)-4-(5-fluoro-1,3-benzoxazol-2-yl)-1,4,6,7-tetrahydroimidazo[4,5-c]pyridin-5-yl]-[5-[4-(trifluoromethyl)-2-pyridyl]-1,3,4-oxadiazol-2-yl]methanone] |
